# Test results taken from ChEMBL document CHEMBL3808364, “The SAR of brain penetration for a series of heteroaryl urea FAAH inhibitors” (Bioorg Med Chem Lett, 2016).
# The source made the active and inactive calls. No cut-off for these calls is given here.
# Columns and labels:
# [1] = tested on: Rattus norvegicus; experiment: Inhibition of FAAH in Sprague-Dawley rat brain homogenate assessed as time duration needed for enzyme activity recovery by measuring [3H]-anandamide hydrolysis at 20 mg/kg by liquid scintillation analysis; format: functional
# [2] = Ratio of drug level in brain to plasma in Sprague-Dawley rat at 20 mg/kg via oral gavage; format: ADME, organism-based; conditions: read-out: BPR
# [3] = tested on: Rattus norvegicus; experiment: Inhibition of FAAH in Sprague-Dawley rat brain homogenate assessed as increase in PEA levels at 0.1 to 100 mg/kg measured 4 hrs post dosing by […]; format: functional, organism-based
# [4] = tested on: Rattus norvegicus; experiment: Inhibition of FAAH in Sprague-Dawley rat brain homogenate assessed as increase in OEA levels at 0.1 to 100 mg/kg measured 4 hrs post dosing by […]; format: functional, organism-based
# [5] = Dissociation constant, pKa of the compound at pH 7.2; format: physicochemical
# [6] = tested on: Rattus norvegicus; experiment: Inhibition of FAAH in Sprague-Dawley rat brain homogenate assessed as increase in PEA levels at 20 mg/kg after 0.5 to 4 hrs by […]; format: functional, organism-based
# [7] = tested on: Rattus norvegicus; experiment: Inhibition of FAAH in Sprague-Dawley rat brain homogenate assessed as increase in OEA levels at 20 mg/kg after 0.5 to 4 hrs by […]; format: functional, organism-based
# [8] = Clearance in Sprague-Dawley rat; format: ADME, organism-based; conditions: in vivo
# [9] = Volume of distribution at Steady state in Sprague-Dawley rat; format: ADME, organism-based; conditions: in vivo, read-out: Vdss
# [10] = Oral bioavailability in Sprague-Dawley rat; format: ADME, organism-based; conditions: in vivo
# [11] = Dissociation constant, pKa of the compound; format: physicochemical
# [12] = target: T1, Fatty-acid amide hydrolase 1 (Rattus norvegicus, UniProt P97612); experiment: Apparent inhibition of recombinant rat FAAH expressed in SK-N-MC cells assessed as [3H]-anandamide hydrolysis after 1 hr by liquid scintillation analysis; format: cell-based
# T1 sequence (P97612 whole entry): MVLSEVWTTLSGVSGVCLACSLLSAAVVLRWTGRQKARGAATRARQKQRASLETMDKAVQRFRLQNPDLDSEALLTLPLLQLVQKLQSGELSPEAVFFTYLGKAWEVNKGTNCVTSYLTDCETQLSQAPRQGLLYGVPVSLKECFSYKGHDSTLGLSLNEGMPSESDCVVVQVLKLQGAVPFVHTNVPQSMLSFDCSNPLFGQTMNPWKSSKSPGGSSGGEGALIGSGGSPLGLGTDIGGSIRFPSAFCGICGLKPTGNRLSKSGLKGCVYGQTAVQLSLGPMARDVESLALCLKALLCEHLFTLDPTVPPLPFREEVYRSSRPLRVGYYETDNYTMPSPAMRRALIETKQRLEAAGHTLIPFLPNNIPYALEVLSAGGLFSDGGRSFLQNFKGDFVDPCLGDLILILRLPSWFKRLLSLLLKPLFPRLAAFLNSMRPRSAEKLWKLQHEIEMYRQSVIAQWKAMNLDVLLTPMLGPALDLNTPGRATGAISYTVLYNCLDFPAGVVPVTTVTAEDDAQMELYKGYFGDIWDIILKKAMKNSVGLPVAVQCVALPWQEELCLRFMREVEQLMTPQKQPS
# [13] = target: T2, Fatty-acid amide hydrolase 1 (Homo sapiens, UniProt O00519)
# T2 sequence (O00519 whole entry): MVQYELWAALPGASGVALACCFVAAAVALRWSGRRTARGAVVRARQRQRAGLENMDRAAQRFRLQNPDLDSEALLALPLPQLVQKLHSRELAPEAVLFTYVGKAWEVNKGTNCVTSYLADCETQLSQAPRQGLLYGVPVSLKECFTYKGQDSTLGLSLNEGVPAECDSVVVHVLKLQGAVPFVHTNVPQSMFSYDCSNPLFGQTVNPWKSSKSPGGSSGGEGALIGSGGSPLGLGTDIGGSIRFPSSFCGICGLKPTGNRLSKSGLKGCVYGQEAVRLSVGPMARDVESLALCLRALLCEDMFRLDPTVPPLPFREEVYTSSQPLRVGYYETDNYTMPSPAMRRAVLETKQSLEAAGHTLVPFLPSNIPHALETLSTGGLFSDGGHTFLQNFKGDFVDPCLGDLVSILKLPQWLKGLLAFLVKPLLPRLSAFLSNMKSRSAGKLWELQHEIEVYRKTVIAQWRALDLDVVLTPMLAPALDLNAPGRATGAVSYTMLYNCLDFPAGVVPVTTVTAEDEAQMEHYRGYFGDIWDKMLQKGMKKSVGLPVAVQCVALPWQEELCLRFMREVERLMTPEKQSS
# [14] = Ratio of drug level in brain to plasma in Sprague-Dawley rat at 10 mg/kg via oral gavage; format: ADME, organism-based; conditions: read-out: BPR
# [15] = tested on: Plasma; experiment: Drug uptake in Sprague-Dawley rat plasma at 20 mg/kg via oral gavage after 4 hrs by LC-MS/MS analysis; format: ADME, organism-based; conditions: in vivo
# [16] = tested on: Brain; experiment: Drug uptake in Sprague-Dawley rat brain at 20 mg/kg via oral gavage after 4 hrs by LC-MS/MS analysis; format: ADME, organism-based; conditions: in vivo
# [17] = tested on: Rattus norvegicus; experiment: Inhibition of FAAH in Sprague-Dawley rat brain homogenate assessed as residual activity measured as [3H]-anandamide hydrolysis at 20 mg/kg within 30 mins by liquid scintillation analysis; format: functional
# [18] = organism: Rattus norvegicus; conditions: Sprague-Dawley, Brain, 20 mg/kg
# Description: Inhibition of FAAH in Sprague-Dawley rat brain homogenate assessed as reduction in residual activity measured as [3H]-anandamide hydrolysis at 20 mg/kg measured after 0.5 to 6 hrs by liquid scintillation analysis
# [19] = Ratio of drug level in brain to plasma in Sprague-Dawley rat at 0.6 mg/kg via oral gavage; format: ADME, organism-based; conditions: read-out: BPR
# [20] = Ratio of drug level in brain to plasma in Sprague-Dawley rat at 6 mg/kg via oral gavage; format: ADME, organism-based; conditions: read-out: BPR
# [21] = tested on: Rattus norvegicus; experiment: In-vivo reversible inhibition of FAAH in Sprague-Dawley rat brain homogenate assessed as residual activity measured as [3H]-anandamide hydrolysis after 48 hrs by liquid scintillation analysis; format: functional, organism-based
Compound,Kp [2],clearance [8],Vd [9],bioavailability [10],IC50 [12],IC50 [13],Time [1],"FAAH inhibition (PEA level increase), active/inactive [6]",OEA level increase (activity call) [7],further results
O=C(Nc1cccnc1)N1CCN(Cc2cccc(Oc3ccc(C(F)(F)F)cc3)c2)CC1,1.99,–,–,–,–,–,24 h,–,–,inhibition [3]: Active; inhibition [4]: Active
O=C(Nc1cccc2nccn12)N1CCN(Cc2cccc(Oc3ccc(Cl)cc3)c2)CC1,–,–,–,–,–,–,24 h,Active,Active,pKa [5]: 6.8
O=C(Nc1cccnc1)N1CCN(Cc2cccc(Oc3ccc(Br)cc3)c2)CC1,1.58,13.3 mL/min/kg,2.8 L/kg,100%,20 nM,2.4 nM,24 h,–,–,–
O=C(Nc1noc2ccccc12)N1CCN(Cc2cccc(Oc3ccc(Cl)cc3)c2)CC1,–,9.33 mL/min/kg,2.48 L/kg,44%,8 nM,–,24 h,Active,Active,–
O=C(Nc1cccnc1)N1CCCC(Cc2cccc(Oc3ccc(F)cc3)c2)C1 (configuration not stated),0.33,–,–,–,41 nM,28 nM,24 h,Active,Active,–
O=C(Nc1ccccc1)N1CCN(Cc2cccc(Oc3ccc(Cl)cc3)c2)CC1,–,–,–,–,–,–,24 h,–,–,Kp [14]: 3.64
O=C(Nc1cnccn1)N1CCN(Cc2cccc(Oc3ccc(Cl)cc3)c2)CC1,–,15.5 mL/min/kg,4.11 L/kg,35%,84 nM,–,24 h,Active,Active,pKa [11]: 0.6; Activity [17]: 10%; inhibition [18]: Active
O=C(Nc1nnn[nH]1)N1CCN(Cc2cccc(Oc3ccc(Cl)cc3)c2)CC1,–,3.33 mL/min/kg,1.1 L/kg,100%,–,–,–,–,–,pKa [5]: 4.9

# Second part, led by results:
Kp [2],clearance [8],Vd [9],bioavailability [10],IC50 [12],IC50 [13],Compound,Time [1],"FAAH inhibition (PEA level increase), active/inactive [6]",OEA level increase (activity call) [7],further results
–,8.33 mL/min/kg,2 L/kg,75%,–,–,O=C(Nc1cc[nH]n1)N1CCN(Cc2cccc(Oc3ccc(Cl)cc3)c2)CC1,24 h,Active,Active,pKa [11]: 2.5
1.18,46.5 mL/min/kg,3.33 L/kg,18%,20 nM,1.3 nM,O=C(Nc1cnccc1Cl)N1CCN(Cc2cccc(Oc3ccc(Cl)cc3)c2)CC1,24 h,Active,Active,pKa [11]: 3.85
1.57,10 mL/min/kg,4 L/kg,100%,290 nM,16 nM,O=C(Nc1cccnc1)N1CCN(Cc2cccc(Oc3ccc(F)cc3)c2)CC1,24 h,Active,Active,–
1.26,–,–,–,76 nM,8 nM,O=C(Nc1cccnc1)N1CCN(Cc2cc(Cl)cc(Oc3ccc(Cl)cc3)c2)CC1,24 h,Active,Active,Drug uptake [15]: Dose-dependent effect; Drug uptake [16]: Dose-dependent effect
2.26,–,–,–,215 nM,4.3 nM,O=C(Nc1cccnc1)N1CCC(Cc2cccc(Oc3ccc(Cl)cc3)c2)CC1,24 h,Active,Active,–
–,10 mL/min/kg,2.6 L/kg,50%,–,–,O=C(Nc1ccon1)N1CCN(Cc2cccc(Oc3ccc(Cl)cc3)c2)CC1,24 h,Active,Active,–
0.67,–,–,–,48 nM,3.3 nM,O=C(Nc1cnccc1Cl)N1CCN(Cc2cccc(Oc3ccc(F)cc3)c2)CC1,24 h,Active,Active,–
3.28,–,–,–,17 nM,17 nM,N#Cc1ccncc1NC(=O)N1CCN(Cc2cccc(Oc3ccc(Cl)cc3)c2)CC1,24 h,Active,Active,pKa [11]: 1.9
0.45,–,–,–,22 nM,1 nM,O=C(Nc1cccnc1)N1CCC(Cc2cccc(Oc3ccc(Cl)cn3)c2)CC1,24 h,Active,Active,–
2.62,11.5 mL/min/kg,3.2 L/kg,–,–,–,O=C(Nc1cccnc1)N1CCN(Cc2cccc(Oc3ccc(Cl)cc3)c2)CC1,24 h,–,–,pKa [11]: 5.25; Kp [19]: 2.62; Kp [20]: 2.62; inhibition [21]: Active
